Assay results from PMC6350249 (The Journal of organic chemistry, 2016).

Key:
[1] = test system: chloroquine-resistant (W2) strain of Plasmodium falciparum; assay: Antimalarial inhibitory activity, chloroquine-resistant; type: cell-based; details: P. falciparum W2 strain
[2] = biological target: T1, CH1 domain of p300 and the C-TAD domain of HIF-1α (Homo sapiens, UniProt Q09472); assay: HIF-1α/p300 assay, dose–response version of the screening assay; type: binding; details: for inhibition of the protein–protein interaction: at 500 μM (high test concentration)
[3] = test system: chloroquine-sensitive (D6) strain of Plasmodium falciparum; assay: Antimalarial inhibitory activity, chloroquine-sensitive; type: cell-based; details: P. falciparum D6 strain
[4] = biological target: T1, CH1 domain of p300 and the C-TAD domain of HIF-1α; details: earlier report; cited from earlier work

T1 sequence (Q09472 331-417 limits assumed): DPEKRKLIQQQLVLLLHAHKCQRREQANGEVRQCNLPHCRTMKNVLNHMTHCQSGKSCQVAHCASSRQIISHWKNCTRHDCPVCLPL

## (−)-(S)-eudistidine C [1b]
[1]
  antimalarial effect (in words): significant antimalarial effects
[2]; HIF-1α/p300 assay
  IC50: 276000 nM
[3]
  antimalarial effect (in words): significant antimalarial effects

## COc1ccc(C2(c3[nH]c(N)nc3-c3ccc(O)cc3)N=C3N=CC=C4c5ccccc5N=C2N43)cc1 (stereo not drawn) [compound 1, eudistidine C]
[2]
  inhibition of the protein–protein interaction: approximately 48%

## COc1ccc(C2(O)N=C3N=CC=C4c5ccccc5N=C2N43)cc1 (stereo not drawn) [compound 2, eudistidine A]
[1]
  IC50: 1100 nM
  antimalarial effect (in words): significant antimalarial effects
[4]
  inhibition of the protein–protein interaction between p300 and HIF-1α (in words): inhibited
[3]
  IC50: 1400 nM
  antimalarial effect (in words): significant antimalarial effects

## (+)-(R)-eudistidine C [1a]
[1]
  antimalarial effect (in words): significant antimalarial effects
[2]
  inhibition of the protein–protein interaction: 27%
[3]
  antimalarial effect (in words): significant antimalarial effects
